The values that follow are results of earlier work, collected in patent US12576017B2, “Sunscreen composition with enhanced photoprotection” (Edgewell Personal Care Brands, LLC, priority 2021, dated 2026).

For this series the following is noted: lipid/water partition.
Turning to `COc1ccc(C(=O)c2ccccc2)c(O)c1` [Benzophenone-3, 2-hydroxy-4-methoxybenzophenone], the “Log P @25° C.” value is listed as 2.63.
For the compound `COc1cc(O)c(C(=O)c2ccccc2)cc1S(=O)(=O)O` [Benzophenone-4, 2-hydroxy-4-methoxybenzophenone-5-sulfonic acid], the “Log P @25° C.” value is listed as −1.51.
Turning to `COc1ccc(C(=O)c2ccccc2O)c(O)c1` [Benzophenone-8, 2,2′-dihydroxy-4-methoxybenzophenone], the “Log P @25° C.” value was 2.15.
As to `CCOCCOC(=O)/C=C/c1ccc(OC)cc1` [Cinoxate, Ethoxyethyl methoxy cinnamate], the “Log P @25° C.” value is given as 2.55.
As to `CCOC(=O)c1ccc(N(CC(C)O)CC(C)O)cc1` (stereo not shown) [Ethyl dihydroxypropyl PABA, Ethyl-4-bis(2-hydroxypropyl-aminobenzoate)], the “Log P @25° C.” value is given as 2.84.
For `Nc1ccc(C(=O)OCC(O)CO)cc1` (stereo not shown) [Glyceryl PABA, 1,2,3-Propanetriol,1-(4-aminobenzoate)], the “Log P @25° C.” value is −0.02.
Regarding `CC1CC(OC(=O)c2ccccc2O)CC(C)(C)C1` (stereo not shown) [Homosalate, Homomenthyl salicylate], the “Log P @25° C.” value was 5.61.
As for `CC1CCC(C(C)C)C(OC(=O)c2ccccc2N)C1` (stereo not shown) [Menthyl anthranilate, Menthyl-O aminobenzoate], the “Log P @25° C.” value is recorded as 5.05.
With `CCCCC(CC)COC(=O)C(C#N)=C(c1ccccc1)c1ccccc1` (stereo not shown) [Octocrylene, Octyl cyanodiphenylacrylate], the “Log P @25° C.” value is listed as 5.69.
Consider `CCCCC(CC)COC(=O)c1ccc(N(C)C)cc1` (stereo not shown) [Octyl dimethyl PABA, 2-Ethylhexyl-p-dimethyl aminobenzoate], for which the “Log P @25° C.” value was 6.08.
Take `CCCCC(CC)COC(=O)C=Cc1ccc(OC)cc1` (stereo not shown) [Octyl methoxy cinnamate, Ethylhexyl-p-methoxy cinnamate]: the “Log P @25° C.” value was 5.65.
On to `CCCCC(CC)COC(=O)c1ccccc1O` (stereo not shown) [Octyl salicylate, 2-Ethylhexyl salicylate], for which the “Log P @25° C.” value is listed as 5.30.
In the case of `Nc1ccc(C(=O)O)cc1` [PABA, p-Amino benzoic acid], the “Log P @25° C.” value was 0.74.
